# Measurements published in PubChem BioAssay (NCI).
#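 Each compound was tested at five concentrations against cells in 96-well plates for 48 hours. At the GI50, growth is halved. TGI is the concentration that stops growth completely.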
# Legend:
# Assay in all cases: NCI-60 cell line screen, 48 h
# NCI-H460 lung = system: NCI-H460 lung
# MALME-3M melanoma = system: MALME-3M melanoma
# DU-145 prostate = system: DU-145 prostate
# HOP-62 NSCLC = system: HOP-62 NSCLC
# HT29 colon = system: HT29 colon
# COLO 205 colon = system: COLO 205 colon
# CCRF-CEM leukemia = system: CCRF-CEM leukemia
# M14 melanoma = system: M14 melanoma
SMILES,GI50 (NCI-H460 lung) [µM],TGI (NCI-H460 lung) [µM],GI50 (MALME-3M melanoma) [µM],TGI (MALME-3M melanoma) [µM],GI50 (DU-145 prostate) [µM],TGI (DU-145 prostate) [µM],GI50 (HOP-62 NSCLC) [µM],TGI (HOP-62 NSCLC) [µM],GI50 (HT29 colon) [µM],TGI (HT29 colon) [µM],GI50 (COLO 205 colon) [µM],TGI (COLO 205 colon) [µM],GI50 (CCRF-CEM leukemia) [µM],TGI (CCRF-CEM leukemia) [µM],GI50 (M14 melanoma) [µM],TGI (M14 melanoma) [µM]
C=C1C(=O)O[C@H]2[C@H]1CC/C(COC(=O)C(=O)c1cn(C)c3ccc(Cl)cc13)=C\CC[C@@]1(C)O[C@@H]21,2.28,6.75,1.74,4.28,1.69,3.63,1.33,3.02,0.339,1.19,1.96,4.2,0.338,10.9,1.11,2.74
O=C1CC(=O)N(C(=O)c2nn(-c3ccc(Cl)cc3)cc2O)N1,0.345,> 100,0.703,46.5,0.923,> 100,0.5,> 100,0.585,> 50.4,0.748,3.99,0.41,16.7,0.651,27.8
O=c1ccs[nH]1,–,34.3,–,35.5,–,> 91.3,–,38.6,–,34.4,–,30.9,–,17.2,–,26.2
C[C@]12CC[C@@H]3c4cc(-c5ccc(F)cc5)c(O)cc4CC[C@H]3[C@@H]1CC[C@@H]2O,4.26,19.6,10.1,22,12.5,25,11.2,28.3,6.54,20.2,4.83,23.9,6.93,29.3,14.2,34.5
N#Cc1ccc2c(c1)C(=O)c1c-2n(CCCCl)c(=O)c2cc([N+](=O)[O-])ccc12,0.395,> 100,24,> 100,2.74,23.9,2.55,14,7.93,> 100,> 100,> 100,0.589,10.7,4.64,> 100
NC1CCC(Nc2nc(NCc3ccc(-c4ccccc4O)nc3)c3ncn(C4CCCC4)c3n2)CC1 (configuration not stated),0.0337,1.17,–,–,0.0344,1.16,0.0157,0.0666,< 0.01,0.21,0.012,0.0278,< 0.01,1.22,0.0112,0.0552
O=C(O)CCCSc1ccccc1,–,> 100,–,> 100,–,> 100,–,> 100,–,> 100,–,> 100,–,> 100,–,> 100
COc1ccc(-c2cc(-c3ccc(Cl)cc3)nc(SCCCC(=O)NO)n2)cc1,0.495,3.9,1.86,7.01,0.826,6,0.902,6.66,1.41,3.77,1.69,4.4,0.222,> 100,0.786,3.12
COc1ccc(-c2oc(=O)ccc2-c2cc(OC)c(OC)c(OC)c2)cc1O,0.604,> 100,–,> 100,2.05,> 100,5.37,> 100,3.97,> 47.3,6.78,36,2.07,18.9,0.833,30.4
O=S(=O)(NCCCNc1nccc(-c2c(-c3ccc(F)c(O)c3)nc3sccn23)n1)c1ccc(F)cc1,2.37,6.35,0.0316,1.01,–,–,2.78,8.7,2.94,37.8,1.48,9.67,1.58,6.07,0.0481,3.14
CNC(=S)NC(=O)c1c(Cl)n(C(=O)OC(C)(C)C)c2ccccc12,48.6,> 100,> 100,> 100,94.2,> 100,> 100,> 100,56.7,> 100,59.6,> 100,35.4,> 100,83,> 100
O=C1NC(=O)C(c2ccccc2Cl)=C1Nc1cc(Cl)c(O)c(Cl)c1,> 25,> 25,17,> 25,> 25,> 25,14.5,> 25,14.2,> 25,> 18.1,> 25,–,–,> 19.5,> 25
CS(=O)(=O)CCNCc1ccc(-c2ccc3ncnc(Nc4ccc(OCc5ccccc5)c(Br)c4)c3c2)o1,7.87,> 25,5.37,10.4,12.6,> 25,11.2,> 25,4.72,10.1,4.69,9.75,9.89,> 25,4.98,10.3
CCOP(=O)(OCC)/C(=C/NC(=S)c1ccncc1)C(=O)OC,–,> 100,–,–,–,> 100,–,> 100,–,> 100,–,> 100,–,64.8,–,> 100
COC(=O)c1cc2c3ccccc3n3c(=O)c4cc5ccccc5nc4c(n1)c23,> 100,> 100,> 100,> 100,> 100,> 100,–,–,> 100,> 100,> 100,> 100,> 100,> 100,> 100,> 100
C=C1C(C2(C)C(OC(C)=O)CC(=O)OC(C)(COC(C)=O)C2CC(=O)OC)C(OC=O)C(OC(=O)C(O)C(C)CC)C2(C)C(c3ccoc3)CC(=O)C12O (configuration not stated),–,> 21.8,–,–,–,> 100,–,> 100,–,> 100,–,> 100,–,–,–,> 100
O=C(O)Cc1cc(=O)[nH]c2c1/C(=N/O)CCC2,–,> 100,–,> 100,–,–,–,–,–,> 100,–,–,–,> 100,–,> 100
